The text below walks through data of patent US7951549B2, “Methods for the identification of agents that inhibit mesenchymal-like tumor cells or their formation” (OSI Pharmaceuticals, Inc., priority 2008, dated 2011).

“Also recorded” adds a separate entry of the source.

Common to all, as to assay type: cell-based, human
Assay [1] relates to H358 cells. In words: Induction of EMT in H358 cells by growth factors and cytokines (immunoblot of EMT biomarkers). The conditions noted are these: for induction of EMT in H358 cells: single ligand, 7 days. On the procedure:
The human line H358 was cultured in the appropriate ATCC recommended supplemented media. Growth factor and cytokine induced EMT was monitored over a 7-14 day period. Growth factors and cytokines were obtained from commercial sources and included TGFβ 10 ng/ml, Endothelin 100 nM, IL-4 5 ng/ml, IL-6 5 ng/ml, IL-8 5 ng/ml, VEGF 10 ng/ml, Stromal derived factor, 100 ng/ml, Epidermal derived factor 10 ng/ml, MMP2, 100 ng/ml, MMP7, 100 ng/ml, MMP9, 100 ng/ml, Collagen-I, 5 μg/cm2, Collagen-IV, 5 μg/cm2, Fibronectin, 1 μg/cm2, Laminin-I, 1 μg/cm2, Vitronectin, 0.1 μg/cm2, Polylysine, 100 mg/mL, HGF, 100 ng/mL, MSP, 100 ng/ml, IGF-1, 50 ng/mL, CSF-1, 100 ng/mL, ET1, 100 nM, SDF-1alpha, 100 ng/ml PGE2, 500 nM, LPA, 10 μM, S1P, 1 μM, TGFbeta1, 2.5 ng/mL, TNFalpha, 25 ng/mL, IL1beta, 2.5 ng/mL, IL6, 2 ng/mL, IL8, 0.5 ng/mL, WNT-1, 5 ng/mL, CTGF, 20 ng/ml, Trance, 50 ng/ml, FGF1, 10 ng/ml, FGF2, 10 ng/ml, BMP4, 100 ng/ml, BMP7, 100 ng/ml, IGF2, 100 ng/ml, Oncostatin M, 100 ng/ml, NRG1, 50 ng/ml, PDGF-AA, 50 ng/ml, PDGF-BB, 30 ng/ml, WISP1, 20 ng/ml, Fulvestrant, 1 μM, LIF, 20 ng/ml, IFN g, 50 ng/ml, HMG-B1, 50 ng/ml, M-CSF, 50 ng/ml, PTHrP, 50 ng/ml, MCP1, 50 ng/ml, IL-1a, 10 ng/ml, IL-33, 50 ng/ml, IL-31, 50 ng/ml, GM-CSF, 25 ng/ml, Angiopoeitin 2, 400 ng/ml, PAR1, 100 μM, PAR2, 100 μM, PAR4, 100 μM, Wnt5a, 200 ng/ml, G-CSF, 50 ng/ml, Amphiregulin, 100 ng/ml, CNTF, 25 ng/mL, Pleiotrophin, 25 ng/ml, Prolactin, 100 ng/ml, TRAIL, 100 ng/ml.
Cell lines were treated as indicated in the text and figure legends. Cell lysates were prepared in RIPA buffer (Sigma, #R0278) containing protease (Sigma #P8340) and phosphatase (Sigma, #P5726) inhibitors. Protein concentration was determined by micro-BCA assay (Pierce, #23227). Protein immunodetection was performed by electrophoretic transfer of SDS-PAGE separated proteins to nitrocellulose, incubation with antibody and chemiluminescent second step detection (PicoWest; Pierce, #34078). The antibodies used were: E-cadherin (sc21791), N-cadherin (#7939), ErbB3 (sc285), GAPDH (#25778) and Zeb1 (#25388), all from Santa Cruz Biotechnology; vimentin (BD550513) and fibronectin (BD610077; both from BD Biosciences); β-actin (Sigma, #A5441).

Assay [2] relates to H358 cells. In words: Immunofluorescence and confocal imaging of E-cadherin and vimentin in ligand-treated H358 cells. The conditions noted are these: cells treated for 7 days. As to the method: (§1) Cells were plated on coverslips on experimental day 0, stimulated with ligand on day 1 and refreshed with medium and ligand on day 3-4. On day 7, cells were fixed at room temperature for 10 minutes in 4% paraformaldehyde (EMS #15701)/PBS (Gibco #14190). Cells were blocked in 3% BSA/PBS and incubated with primary antibody (E-cadherin, Santa Cruz #sc21791 and Vimentin, Chemicon #AB5733) diluted in blocking buffer for two hours at room temperature. Cells were washed and incubated in secondary antibody (Invitrogen #A11029 and Chemicon #AP194R) followed by nuclear counterstain TO-PRO3 (Invitrogen #T3605). Coverslips were mounted on slides with Pro-Long Gold anti-fade reagent (Invitrogen P36934). Images were captured on a Leica DMRXE microcope with SP2 scanner using Leica Confocal Software.

Assay [3] relates to H358 cells. In words: Ligand-induced EMT in H358 cells with pharmacological inhibitors (Western blot markers, morphology). Conditions: inhibitor and ligand for 7 days; for EMT in OSM-induced models (markers and morphology): OSM alone or in combination. On the procedure:
EMD Biosciences #444937), JAK inhibitor 1 (“JAKi”; EMD Biosciences #420099), and LY294002 (PI3K inhibitor (PI3Ki); EMD Biosciences #440202) were used in the concentrations indicated. Cells were treated with inhibitor 30 minutes prior to ligand stimulation. Medium, inhibitor and ligand were refreshed on experimental day 3 to 4. Cell lines were treated as indicated in the text and figure legends. Cell lysates were prepared in RIPA buffer (Sigma, #R0278) containing protease (Sigma #P8340) and phosphatase (Sigma, #P5726) inhibitors. Protein concentration was determined by micro-BCA assay (Pierce, #23227). Protein immunodetection was performed by electrophoretic transfer of SDS-PAGE separated proteins to nitrocellulose, incubation with antibody and chemiluminescent second step detection (PicoWest; Pierce, #34078). The antibodies used were: E-cadherin (sc21791), N-cadherin (#7939), ErbB3 (sc285), GAPDH (#25778) and Zeb1 (#25388), all from Santa Cruz Biotechnology; vimentin (BD550513) and fibronectin (BD610077; both from BD Biosciences); β-actin (Sigma, #A5441).

Assay [4] relates to H358 cells. In words: TGFβ-induced EMT of H358 cells in 3D matrigel culture, with and without inhibitor. Conditions: 10 μM SB431542, ligand TGFβ. On the procedure:
3-Dimensional matrigel culture: Tissue culture wells were coated with a layer of matrigel of 1 mm depth or greater. H358 cells were plated on top of this in 2% matrigel with seeding density of 2,500-5000 cells/cm^2. Once the cell/matrigel layer had solidified, media was added and cultures were allowed to incubate overnight at 37° C. in a CO2 incubator before treatment of cells with ligand with and without addition of 10 μM SB431542 (Sigma-Aldrich, St. Louis, Mo.; product #S4317). Culture media, ligand with and without addition of 10 μM SB431542 was replenished every 3-4 days during the duration of the experiment.
as §1, with “Images were captured on a Leica DMRXE microcope with SP2 scanner using Leica Confocal Software.” left out

Consider “HGF: hepatocyte growth factor (Peprotech #100-39)”, for which, in the assay with H358 cells [1] (seven day treatment of H358), the “E-cadherin repression or vimentin induction as single agents” value is reported as “neither HGF or OSM as single agents produced significant”. The “extent of EMT at the single cell level (E-cadherin and vimentin expression and localization)” value in the assay on H358 cells [2] was “partial EMT”.
Regarding TNFα, the “induction of EMT in H358 cells” value with H358 cells [1] was “able to induce EMT”.
`CC(C)(C)c1nc2c3cc[nH]c(=O)c3c3cc(F)ccc3c2[nH]1` [JAK inhibitor]: the figures for the “EMT in OSM-induced models (markers and morphology)” value in the assay on H358 cells [3] and in the assay on H358 cells [3] (listed as JAKi) were “blocked” and “blocks”, respectively. For the same compound, the “downregulation of E-cadherin induced by OSM, TGFβ, HGF+OSM and TGFβ+OSM” value in the assay with H358 cells [3] (Western blot) was “blocked”. Also, the “upregulation of vimentin by OSM, HGF+OSM and TGFβ+OSM” value with H358 cells [3] (Western blot) was “attenuated”.
Regarding “EGF: epidermal growth factor, protein ligand”, the “induction of EMT in H358 cells” value in the assay with H358 cells [1] is listed as “to a lesser extent”.
As to `NC(=O)c1ccc(-c2nc(-c3ccc4c(c3)OCO4)c(-c3ccccn3)[nH]2)cc1` [SB431542], the “epithelial to mesenchymal transition induced by TGFβ (vimentin, E-cadherin)” value with H358 cells [4] was “abrogated; also recorded: inhibited”.
As for TGFβ, in the assay with H358 cells [1] (seven day treatment of H358), the E-cadherin expression result is “marked decrease” and the vimentin expression result is listed as “robust increase”. In addition, the E-cadherin expression result in the assay on H358 cells [1] (seven day treatment of H358, listed as TGF-beta) is “very substantial”. Moreover, the “induction of EMT in H358 cells” value with H358 cells [1] is listed as “most complete EMT”. The “extent of EMT at the single cell level (E-cadherin and vimentin expression and localization)” value in the assay with H358 cells [2] was “more complete EMT”.
